Measured values reported in patent EP4810052A2, “HCRHR2 SELECTIVE POLYPEPTIDES” (Gubra A/S, priority 2023, dated 2026).
Read-outs that look alike come from different tables or passages of the source. Starred links: 1 amine or outer side, 2 acyl side, 3 side chain; linkers in the order of their positions; H or OH if unused. Non-standard residues stand in square brackets, D forms with d. Residues, ends and D or L forms follow the SMILES beside them. Groups on a side chain read outwards from the residue. *: point of attachment. C20 diacid = O=C(O)CCCCCCCCCCCCCCCCCCC(=O)*; γGlu = O=C(O)[C@H](CCC(=O)[*:2])N[*:1]; NMeI = CC[C@H](C)[C@H](NC)C(=O)O; Nle = CCCC[C@H](N)C(=O)O; AEEA = NCCOCCOCC(=O)O; Aib = CC(C)(N)C(=O)O

Tests used:
[1] = target: T1, hCRHR1 (Homo sapiens, UniProt P34998); test: HTRF cAMP assay, determination of hCRHR1 potency (peptide libraries 5 conc., purified peptides 11 conc.); format: cell-based; settings: read-out: hCRHR1 pEC50 (converted)
T1 sequence (P34998 24-415): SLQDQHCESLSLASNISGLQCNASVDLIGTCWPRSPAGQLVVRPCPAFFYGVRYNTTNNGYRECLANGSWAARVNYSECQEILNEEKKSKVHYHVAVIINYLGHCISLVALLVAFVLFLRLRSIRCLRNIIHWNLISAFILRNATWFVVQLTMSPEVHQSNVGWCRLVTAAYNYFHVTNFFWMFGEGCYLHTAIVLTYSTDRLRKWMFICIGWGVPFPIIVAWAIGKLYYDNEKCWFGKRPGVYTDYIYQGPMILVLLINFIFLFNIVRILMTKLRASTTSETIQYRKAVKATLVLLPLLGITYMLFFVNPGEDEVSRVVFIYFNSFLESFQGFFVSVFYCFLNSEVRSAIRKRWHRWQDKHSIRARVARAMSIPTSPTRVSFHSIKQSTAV
In short: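 Cellular cAMP was read by time-resolved FRET between d2-labelled cAMP and cryptate anti-cAMP antibody. The cells were freshly thawed suspension CHO-K1 cells stably expressing human CRHR1.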

[2] = target: T2, hCRHR2 (Homo sapiens, UniProt Q13324); test: HTRF cAMP assay, determination of hCRHR2 potency (peptide libraries 5 conc., purified peptides 11 conc.); format: cell-based; settings: read-out: hCRHR2 pEC50 (converted)
T2 sequence (Q13324 1-411): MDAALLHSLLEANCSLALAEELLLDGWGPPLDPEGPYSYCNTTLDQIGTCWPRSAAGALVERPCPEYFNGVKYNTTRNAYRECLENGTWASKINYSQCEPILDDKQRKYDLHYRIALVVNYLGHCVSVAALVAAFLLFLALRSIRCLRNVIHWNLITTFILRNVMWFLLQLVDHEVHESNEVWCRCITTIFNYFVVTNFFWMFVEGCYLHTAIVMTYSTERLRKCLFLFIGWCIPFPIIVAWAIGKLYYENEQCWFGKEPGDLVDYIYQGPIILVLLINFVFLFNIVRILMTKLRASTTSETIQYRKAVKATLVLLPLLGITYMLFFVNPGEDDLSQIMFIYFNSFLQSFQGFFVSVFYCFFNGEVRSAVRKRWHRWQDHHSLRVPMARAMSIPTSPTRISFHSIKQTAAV
In short: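 EC50 derived by variable-slope sigmoid regression of FRET-based cAMP data; cellular cAMP displaced d2-labelled tracer from cryptate anti-cAMP antibody. Stable human CRHR2 CHO-K1 suspension cells, revived from frozen stocks just before the run.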

[3] = Table 4, library peptides having X^38 = Nle
[4] = Table 3, matched molecular pairs X^38 L vs Nle, peptide library of Example 4

| SMILES | EC50 [1, 3] [µM] | EC50 [2, 3] [pM] | EC50 [1, 4] [µM] | EC50 [2, 4] [pM] |
| --- | --- | --- | --- | --- |
| CCCC[C@H](NC(=O)[C@@H](NC(=O)[C@H](CCC(=O)O)NC(=O)C(C)(C)NC(=O)[C@H](CC(N)=O)NC(=O)[C@@H](NC(=O)[C@H](CCCCNC(=O)COCCOCCNC(=O)COCCOCCNC(=O)CC[C@H](NC(=O)CC[C@H](NC(=O)CCCCCCCCCCCCCCCCCCC(=O)O)C(=O)O)C(=O)O)NC(=O)[C@H](C)NC(=O)[C@H](CCC(N)=O)NC(=O)[C@H](CCC(=O)O)NC(=O)[C@H](CCCNC(=N)N)NC(=O)[C@H](C)NC(=O)[C@H](C)NC(=O)[C@H](CCCNC(=N)N)NC(=O)[C@H](C)NC(=O)[C@H](CCCNC(=N)N)NC(=O)[C@H](C)NC(=O)[C@H](CCC(N)=O)NC(=O)[C@H](CC(C)C)NC(=O)[C@H](CC(C)C)NC(=O)[C@H](CC(C)C)NC(=O)[C@@H](NC(=O)[C@H](CCC(N)=O)NC(=O)[C@H](CC(C)C)NC(=O)[C@H](CC(C)C)NC(=O)CNC(=O)[C@@H](NC(=O)[C@@H]1CCCN1C(=O)[C@@H](NC(=O)[C@H](CC(=O)O)NC(=O)[C@H](CC(C)C)NC(=O)[C@H](CO)NC(=O)[C@H](CC(C)C)NC(=O)[C@@H](NC(=O)[C@@H](NC)[C@@H](C)CC)C(C)C)C(C)C)[C@@H](C)CC)[C@@H](C)CC)[C@@H](C)O)[C@@H](C)CC)C(=O)N[C@@H](C)C(=O)N[C@@H](CCC(=O)O)C(=O)N[C@H](C(N)=O)C(C)C [compound 229] (H-[NMeI]VLSLDVPIGLLQILLLQARARAAREQAK([AEEA-AEEA-γGlu-γGlu-C20 diacid])TN[Aib]EI[Nle]AEV-NH2) | 6.31 | 79.4 |  |  |
| CC[C@H](C)[C@H](N)C(=O)N[C@H](C(=O)N[C@@H](CC(C)C)C(=O)N[C@@H](CO)C(=O)N[C@@H](CC(C)C)C(=O)N[C@@H](CC(=O)O)C(=O)N[C@H](C(=O)N1CCC[C@H]1C(=O)N[C@H](C(=O)NCC(=O)N[C@@H](CC(C)C)C(=O)N[C@@H](CC(C)C)C(=O)N[C@@H](CCC(N)=O)C(=O)N[C@H](C(=O)N[C@@H](CC(C)C)C(=O)N[C@@H](CC(C)C)C(=O)N[C@@H](CCC(=O)O)C(=O)N[C@@H](CCC(N)=O)C(=O)N[C@@H](C)C(=O)N[C@@H](CCCNC(=N)N)C(=O)N[C@@H](C)C(=O)N[C@@H](CCC(=O)O)C(=O)N[C@@H](C)C(=O)N[C@@H](C)C(=O)N[C@@H](CCCNC(=N)N)C(=O)N[C@@H](CCC(=O)O)C(=O)N[C@@H](CCC(N)=O)C(=O)N[C@@H](C)C(=O)N[C@@H](CCCCNC(=O)COCCOCCNC(=O)COCCOCCNC(=O)CC[C@H](NC(=O)CC[C@H](NC(=O)CCCCCCCCCCCCCCCCCCC(=O)O)C(=O)O)C(=O)O)C(=O)N[C@H](C(=O)N[C@@H](CC(N)=O)C(=O)N[C@@H](C)C(=O)N[C@@H](CCC(=O)O)C(=O)N[C@H](C(=O)N[C@@H](CC(C)C)C(=O)N[C@@H](C)C(=O)N[C@@H](CCC(=O)O)C(=O)N[C@H](C(N)=O)C(C)C)[C@@H](C)CC)[C@@H](C)O)[C@@H](C)CC)[C@@H](C)CC)C(C)C)C(C)C [SEQ ID NO: 25] (H-IVLSLDVPIGLLQILLEQARAEAAREQAK([AEEA-AEEA-γGlu-γGlu-C20 diacid])TNAEILAEV-NH2) |  |  | 6.31 | 794 |
